From patent US20010051191A1, “Composition and method for treating non-bacterial cystitis” (priority 2000, published 2001)

Assays:
[1] = test system: patients without positive bacterial cultures localized to the prostatic fluid; assay: Example II: double blind placebo-controlled study using 30 patients; type: in vivo
Procedure: A double blind study using 30 patients without positive bacterial cultures localized to the prostatic fluid are enrolled in a double blind study. Seventeen of the patients receive a composition comprised of quercetin in amount of 500 milligrams, bromelin in an amount of 10 milligrams, and papain in an amount of 10 milligrams as the active ingredients thereof. After a randomized study is completed, an additional fifteen patients are treated in an open label study with only the […]. […] The mean symptom score improves from 21.0 to 13.1 in the group receiving quercetin, but from 20.2 to 18.8 in the placebo group. This represents an improvement of 35%. In those patients which receive only the quercetin, without the papain and bromelin, with obtainable secretions, the white blood cell count in the decreases from 16.8 to 5.3, versus a decrease from 13.1 to 8.3 in the placebo patients.

[2] = Tests of bioavailability of quercetin alone; type: in vivo; settings: transmural intestinal absorption relatively low
[3] = test system: chronic interstitial cystitis syndromes; settings: quercetin alone; cited from earlier work

In the case of `O=c1c(O)c(-c2ccc(O)c(O)c2)oc2cc(O)cc(O)c12` [quercetin], the “mean symptom score, after treatment” value ([1]; end value of the group) is reported as 13.1, the “improvement of mean symptom score” value ([1]; human, in vivo) is reported as 35% and the “white blood cell count in secretions, after treatment” value ([1]; patients with obtainable secretions, end value) is reported as 5.3. For the same molecule, the “white blood cell count in secretions, before treatment” value ([1]; patients with obtainable secretions, start value) was 16.8, the “mean symptom score, before treatment” value ([1]; start value of the group) was 21.0 and the bioavailability [2] was “does not have a high bioavailability”. For the same molecule, the “symptomatic response of patients” value [3] was “significant”.
